Experimental data taken from EP1566447A1, “Glimepiride- and insulin-induced glycosylphosphatidylinositol-specific phospholipase C regulation” (priority 2004, dated 2005).

Tests used:
IRS-1 and pp59^Lyn = experiment: tyrosine phosphorylation of pp59^Lyn and IRS-1; format: cell-based, rat
Procedure: Polypeptides separated by SDS-PAGE were transferred to polyvinylidene difluoride membranes using the semidry procedure as described in "Müller, G. et al., (2001) Mol. Cell. Biol. 21: 4553-4567". Washed membranes were incubated anti-caveolin-1 (1:2000), anti-pp59^Lyn (1:1250), anti-aP (1:500), anti-5'-Nuc (1:750) and anti-IRS-1 (1:2000) antibodies for 4 h at 15°C. Washed membranes were incubated with horseradish peroxidase-coupled secondary goat anti-mouse (1:2000) or goat anti-rabbit IgG (1:4000) antibodies. Labeled proteins were visualized by enhanced chemiluminescence.
Fig. 7: Effect of GPI-2350 on the glimepiride/insulin-induced activation of signaling proteins. Isolated rat adipocytes were treated (5 min, 37°C) without or with GPI-2350 (Panels A, 50 µM; Panels B, increasing conc.) and then incubated (120 min, 37°C) in the absence or presence of insulin (10 nM) or glimepiride (20 µM). IRS-1 and pp59^Lyn were immunoprecipitated from the defatted postnuclear infranatant (see Materials and Methods) and solubilized combined hc/IcDIGs, respectively, and then immunoblotted for phosphotyrosine. […]

lipoprotein lipase (LPL) = target: T1, lipoprotein lipase (LPL) (Bos taurus, UniProt P11151); experiment: selectivity: lipoprotein lipase assay; format: biochemical, bovine; conditions: 50 µM
T1 construct: purchased Sigma/Aldrich (Deisenhofen, Germany); host or cells: bovine milk
T1 sequence (P11151 29-478): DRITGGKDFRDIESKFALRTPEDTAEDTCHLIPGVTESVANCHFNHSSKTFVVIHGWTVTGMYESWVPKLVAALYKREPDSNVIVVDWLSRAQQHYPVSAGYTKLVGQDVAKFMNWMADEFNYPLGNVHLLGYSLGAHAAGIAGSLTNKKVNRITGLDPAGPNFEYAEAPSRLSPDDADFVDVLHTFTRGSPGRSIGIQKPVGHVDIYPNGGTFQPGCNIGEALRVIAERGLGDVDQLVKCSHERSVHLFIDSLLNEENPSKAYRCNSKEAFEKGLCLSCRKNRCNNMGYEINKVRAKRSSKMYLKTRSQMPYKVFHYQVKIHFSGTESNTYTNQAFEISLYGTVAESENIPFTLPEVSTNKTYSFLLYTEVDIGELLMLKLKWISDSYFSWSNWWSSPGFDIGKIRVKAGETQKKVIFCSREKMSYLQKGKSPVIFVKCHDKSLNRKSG
Procedure: Hormone-sensitive lipase (HSL) and lipoprotein lipase (LPL) were measured using a radiolabeled triolein droplet emulsion as described in "Vertesy et al., (2002) Journal Antibiotics 55:480-494". Pancreatic lipase (PL) was determined by incubation of 0.25 mmol tributyrin in 2 ml of 5 mM Tris/HCl (pH 6.5), 6 mM sodium taurodeoxycholate, 150 mM NaCl, 1 mM CaCl2 with porcine PL and colipase in the same buffer using a recording pH stat (stirring at 1000 rpm at 25°C) with the pH adjusted to 6.5. PC-PLC was assayed by incubation of 0.2 ml of 10 mM dipalmitoyllecithin, 0.1 ml of 10 mM SDC and 0.1 ml of 0.03 M CaCl2 with bacterial PC-PLC (in 50 mM Tris/HCl, pH 7.5, 0.1 % BSA) for 10 min at 37°C. The reaction was terminated by addition of 0.1 ml of 50 % TCA and subsequently of 2.5 ml of […]. After centrifugation (1500xg, 15 min), 0.2-ml portions of the upper methanol/water phase (~ 1.33 ml) was removed, supplemented with 0.5 ml of 60 % HClO4, then heated at 170°C for 1 h and finally analyzed for inorganic phosphate. Mammalian PI-PLC was measured by incubation of 0.1 ml of 10 mM PI, 0.1 ml of 0.8 % sodium deoxycholate, 0.1 % BSA, 0.2 ml of 100 mM sodium borate (pH 7.5) and rat liver PI-PLC for 20 min at 37°C. The reaction was terminated and further processed as described for the PC-PLC. […] Radioactive phosphatidic acid was detected by phosphorimaging. […]

CCCCCCCCCCCCP1(=O)O[C@@H]2[C@H](O)[C@@H](O)[C@H](O)[C@@H](O)[C@@H]2O1 (mixture of isomers) [GPI-2350, myo-inositol-1,2-cyclo-dodecylphosphonic acid]
effect on tyrosine phosphorylation of pp59^Lyn and IRS-1 in response to glimepiride (IRS-1 and pp59^Lyn; 50 µM): almost complete blockade | effect on metabolic insulin signaling (tyrosine phosphorylation of IRS-1 and inhibition of lipolysis) (IRS-1 and pp59^Lyn; insulin-stimulated): only marginally reduced | effect on lipase activity (lipoprotein lipase (LPL)): not significantly affected
